Earlier results in US10940187B2, “Method of treatment of schizophreniform disorder” (Curemark, LLC, priority 2011, dated 2021).
Read-outs that look alike come from different tables or passages of the source.

Key:
ckr mice = conditions: for spontaneous hyperactivity of ckr mice: dose dependent effects
control mice = conditions: monitored during the dark cycle

## O=C1CCc2ccc(OCCCCN3CCN(c4cccc(Cl)c4Cl)CC3)cc2N1 [aripiprazole]
Ckr mice; 15 mg/kg
  locomotor activity, post-hoc Dunnett's test vs vehicle control: did not significantly suppress
  motor activity: increase in motor activity
Ckr mice; 30 mg/kg
  locomotor activity, post-hoc Dunnett's test vs vehicle control: significantly suppressed
  motor activity: suppression of motor activity
  overall suppression of motor function (observational): severe sedation
Ckr mice; across doses, F6,54_4.626, P_0.001
  locomotor activity of ckr mice: dose-dependently reduced
Ckr mice; curve fitted to subset of data, doses 1.67 to 10 mg/kg, fit failed to correlate with observed values
  ED50 for initial suppression of locomotor activity: 2.695 mg/kg
Ckr mice
  spontaneous hyperactivity of ckr mice: dose-dependently suppressed
Ckr mice; doses of 3-10 mg/kg
  locomotor activity, post-hoc Dunnett's test vs vehicle control: significantly reduced
Ckr mice; lower doses 1.67-10 mg/kg
  motor activity: dose-dependent reduction
Ckr mice; suppression at low doses, little effect at intermediate doses, suppression at high doses
  shape of dose-response on hyperactivity: tri-phasic dose-response

## O=C(CCCN1CCC(O)(c2ccc(Cl)cc2)CC1)c1ccc(F)cc1 [haloperidol]
Ckr mice
  spontaneous hyperactivity of ckr mice: dose-dependently suppressed
Control mice
  locomotor activity of control mice: did not produce a significant suppression

## Cc1nc2n(c(=O)c1CCN1CCC(c3noc4cc(F)ccc34)CC1)CCCC2 [risperidone]
Ckr mice
  spontaneous hyperactivity of ckr mice: dose-dependently suppressed

## O=C1Cc2cc(CCN3CCN(c4nsc5ccccc45)CC3)c(Cl)cc2N1 [ziprasidone]
Ckr mice
  spontaneous hyperactivity of ckr mice: dose-dependently suppressed

## OCCOCCN1CCN(C2=Nc3ccccc3Sc3ccccc32)CC1 [quetiapine]
Ckr mice
  spontaneous hyperactivity of ckr mice: dose-dependently suppressed
